Results reported in PubChem BioAssay (NCI).
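1) Cells in 96-well plates. 2) Compound, 48 h, 5 concentrations. 3) Linear interpolation between surrounding doses. 4) Unreached endpoint = highest concentration. GI50 = concentration required for 50% inhibition of growth. TGI marks complete inhibition of growth.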

Columns and labels:
Assay in all cases: NCI-60 cell line screen, 48 h; in the data active means GI50 below about 0.43 µM; inactive means the rest
[1] = system: CAKI-1 renal
[2] = system: DU-145 prostate
[3] = system: RPMI-8226 leukemia
[4] = system: ACHN renal
[5] = system: NCI-H23 lung
[6] = system: HL-60(TB) leukemia
[7] = system: UACC-62 melanoma
[8] = system: M14 melanoma
[9] = system: LOX IMVI melanoma
[10] = system: SNB-19 CNS
[11] = system: A549 NSCLC
[12] = system: SK-MEL-28 melanoma
[13] = system: MDA-MB-435
[14] = system: CCRF-CEM leukemia
[15] = system: HOP-92 NSCLC
[16] = system: SF-268 CNS
[17] = system: HS 578T breast
[18] = system: UACC-257 melanoma
[19] = system: OVCAR-8 ovarian
[20] = system: SR leukemia
[21] = system: SW-620 colon
[22] = system: NCI/ADR-RES ovarian
[23] = system: SN12C renal
[24] = system: KM12 colon
[25] = system: RXF 393 renal
[26] = system: A498 renal
[27] = system: NCI-H226 lung
[28] = system: SF-295 CNS
[29] = system: U251 CNS
[30] = system: MDA-MB-231 breast
[31] = system: HOP-62 NSCLC
[32] = system: MCF7 breast
[33] = system: SK-MEL-5 melanoma
[34] = system: OVCAR-5 ovarian
[35] = system: IGROV1 ovarian
[36] = system: SK-OV-3 ovarian
[37] = system: SF-539 CNS
[38] = system: EKVX NSCLC
[39] = system: OVCAR-4 ovarian
[40] = system: BT-549 breast
[41] = system: HCT-116 colon
[42] = system: 786-0 renal
[43] = system: HT29 colon
[44] = system: HCT-15 colon
[45] = system: NCI-H522 lung
[46] = system: SK-MEL-2 melanoma
[47] = system: COLO 205 colon
[48] = system: MOLT-4 leukemia
[49] = system: T-47D breast
[50] = system: K-562 leukemia
[51] = system: TK-10 renal
[52] = system: NCI-H460 lung
[53] = system: SNB-75 CNS
[54] = system: PC-3 prostate
[55] = system: MALME-3M melanoma
[56] = system: OVCAR-3 ovarian
[57] = system: HCC-2998 colon
[58] = system: UO-31 renal

N=C(N)SCc1nc(-c2ccc(Cl)cc2)no1
26.2 µM: TGI [56]
31.2 µM: TGI [9]
77.6 µM: TGI [15]
33 µM: TGI [12]
29.1 µM: TGI [39]
> 100 µM: TGI [5] | TGI [10] | TGI [11] | TGI [16] | TGI [17] | TGI [18] | TGI [19] | TGI [22] | TGI [24] | TGI [27] | TGI [28] | TGI [31] | TGI [33] | TGI [35] | TGI [36] | TGI [52]
27.5 µM: TGI [4]
25.1 µM: TGI [45]
37.5 µM: TGI [23] | TGI [54]
50.6 µM: TGI [40]
30.1 µM: TGI [32]
22.6 µM: TGI [48]
37.2 µM: TGI [21]
78.8 µM: TGI [29]
41.7 µM: TGI [46]
21.9 µM: TGI [20]
41.4 µM: TGI [37]
28.4 µM: TGI [13]
27.8 µM: TGI [34]
41.9 µM: TGI [50]
38.3 µM: TGI [47]
35.9 µM: TGI [30]
59.4 µM: TGI [53]
29.9 µM: TGI [49]
26.8 µM: TGI [3]
24.4 µM: TGI [7]
31.8 µM: TGI [14]
25 µM: TGI [25]
32.3 µM: TGI [26]
55.9 µM: TGI [44]
63 µM: TGI [2]
45.6 µM: TGI [8]
31.9 µM: TGI [41]
37.1 µM: TGI [6]
89.4 µM: TGI [38]
27.4 µM: TGI [1]
34.6 µM: TGI [55]
40.8 µM: TGI [51]
29.3 µM: TGI [42] | TGI [43]

CC(C)(C)NCC(O)c1ccccc1Cl (centres undefined)
inactive: GI50 [1] > 100 µM | GI50 [2] > 100 µM | GI50 [3] > 100 µM | GI50 [4] > 100 µM | GI50 [5] > 100 µM | GI50 [6] > 100 µM | GI50 [7] > 100 µM | GI50 [8] > 100 µM | GI50 [57] > 100 µM | GI50 [9] > 100 µM | GI50 [10] > 100 µM | GI50 [11] > 100 µM | GI50 [12] > 100 µM | GI50 [13] > 100 µM | GI50 [14] > 100 µM | GI50 [15] > 100 µM | GI50 [16] > 100 µM | GI50 [17] > 100 µM | GI50 [18] > 100 µM | GI50 [19] > 100 µM | GI50 [21] > 100 µM | GI50 [22] > 100 µM | GI50 [23] > 100 µM | GI50 [24] > 100 µM | GI50 [25] > 100 µM | GI50 [26] > 100 µM | GI50 [27] > 100 µM | GI50 [28] > 100 µM | GI50 [29] > 100 µM | GI50 [30] > 100 µM | GI50 [31] > 100 µM | GI50 [32] > 100 µM | GI50 [33] > 100 µM | GI50 [34] > 100 µM | GI50 [35] > 100 µM | GI50 [36] > 100 µM | GI50 [37] > 100 µM | GI50 [38] > 100 µM | GI50 [39] > 100 µM | GI50 [40] > 100 µM | GI50 [41] > 100 µM | GI50 [42] > 100 µM | GI50 [43] > 100 µM | GI50 [44] > 100 µM | GI50 [58] > 100 µM | GI50 [45] > 100 µM | GI50 [46] > 100 µM | GI50 [47] > 100 µM | GI50 [48] > 100 µM | GI50 [49] > 100 µM | GI50 [50] > 100 µM | GI50 [51] > 100 µM | GI50 [52] > 100 µM | GI50 [53] > 100 µM | GI50 [54] > 100 µM | GI50 [55] > 100 µM | GI50 [56] > 100 µM
> 100 µM: TGI [1] | TGI [2] | TGI [3] | TGI [4] | TGI [5] | TGI [6] | TGI [7] | TGI [8] | TGI [57] | TGI [9] | TGI [10] | TGI [11] | TGI [12] | TGI [13] | TGI [14] | TGI [15] | TGI [16] | TGI [17] | TGI [18] | TGI [19] | TGI [21] | TGI [22] | TGI [23] | TGI [24] | TGI [25] | TGI [26] | TGI [27] | TGI [28] | TGI [29] | TGI [30] | TGI [31] | TGI [32] | TGI [33] | TGI [34] | TGI [35] | TGI [36] | TGI [37] | TGI [38] | TGI [39] | TGI [40] | TGI [41] | TGI [42] | TGI [43] | TGI [44] | TGI [58] | TGI [45] | TGI [46] | TGI [47] | TGI [48] | TGI [49] | TGI [50] | TGI [51] | TGI [52] | TGI [53] | TGI [54] | TGI [55] | TGI [56]

COc1cc2nc(-c3cccs3)nc(N3CCN(c4ccccc4)CC3)c2cc1OC
> 100 µM: TGI [1] | TGI [2] | TGI [3] | TGI [4] | TGI [5] | TGI [6] | TGI [7] | TGI [8] | TGI [9] | TGI [10] | TGI [11] | TGI [12] | TGI [13] | TGI [15] | TGI [16] | TGI [17] | TGI [18] | TGI [19] | TGI [20] | TGI [21] | TGI [22] | TGI [23] | TGI [24] | TGI [26] | TGI [27] | TGI [28] | TGI [29] | TGI [30] | TGI [31] | TGI [32] | TGI [33] | TGI [34] | TGI [35] | TGI [36] | TGI [37] | TGI [38] | TGI [39] | TGI [40] | TGI [41] | TGI [42] | TGI [43] | TGI [44] | TGI [58] | TGI [45] | TGI [46] | TGI [47] | TGI [49] | TGI [50] | TGI [51] | TGI [52] | TGI [53] | TGI [54] | TGI [55] | TGI [56]
